{"source": "paper PMC2395599", "about": "“Low Dose Histone Deacetylase Inhibitor, Depsipeptide (FR901228), Promotes Adenoviral Transduction in Human Rhabdomyosarcoma Cell Lines” (Sarcoma, 2004)", "key": {"[1]": {"test_system": "adenovirus AdU1 (GFP) uptake in RMS cell lines", "assay": "Adenoviral (AdU1) GFP expression in RMS cell lines pretreated with depsipeptide, Western blot densitometry", "format": "cell-based, human", "settings": "0.5 ng/ml 72 h pretreatment; for fold GFP expression: Fig. 2b", "experimental": "(§1) Sarcoma, March 2004, VOL. 8, NO. […] Methods. […] Results. […] Conclusions. […] Human av integrin primers:8 sense 50 -[…] AGT and antisense 50 -CAGTG[…] […] Cells were harvested after 72 h of treatment. Cell number was determined using a colorimetric MTT assay. […] The cells were replenished with complete media. […] References 1. […] Science 1997; 275: 1320-3. 2. […] J Virol 2000; 74: 42-8. 3. […] Virology 2000; 268: 382-90. 4. Wickham TJ, Mathias P, Cheresh DA, Nemerow GR. […] Cell 1993; 73: 309-19. 5. […] J Biol Chem 2000; 275: 14729-35. 6. […]. […] Cancer Res 1998; 58: 5738-48. 7. […] Cancer Res 1999; 59: 325-30. 8. […] Cancer Res 2001; 61: 6328-30. 9. […] Cancer Res 2001; 61: 2953-60. 10. […] J Biol Chem 1997; 272: 6479-89. 11."}, "[2]": {"test_system": "acetylated histone H3 in CTR cells", "assay": "Western blot analysis for histone H3 acetylation", "format": "cell-based, human", "settings": "CTR cell line, 0.5 ng/ml, 72 h, histone H3 loading control", "experimental": "as §1"}, "av integrin": {"test_system": "av integrin", "assay": "Semi-quantitative RT-PCR for αv integrin RNA expression in RMS cells", "format": "cell-based, human", "settings": "0.5 ng/ml, 72 h; for fold av integrin expression: Fig. 3b", "experimental": "as §1"}, "[3]": {"test_system": "RMS cell lines (RD4a, CTR, RH5, RH13, RH18, RH30)", "settings": "0.5 ng/ml, 72 h, six RMS cell lines, MTT, triplicate, DMSO controls"}, "[4]": {"test_system": "coxackie and adenovirus receptor (CAR)", "assay": "Semi-quantitative RT-PCR for CAR RNA expression in RMS cells", "format": "cell-based, human", "settings": "0.5 ng/ml, 72 h; for fold CAR expression: Fig. 3a", "experimental": "as §1"}, "[5]": {"settings": "range over four of six RMS cell lines, RT-PCR normalised to GAPDH"}}, "note": "“And” between values parts separate entries of the source, which are not always exact repeats. Equal values may be shown once."}
{"smiles": "C/C=C1\\NC(=O)[C@H]2CSSCC/C=C/[C@H](CC(=O)N[C@H](C(C)C)C(=O)N2)OC(=O)[C@H](C(C)C)NC1=O", "note": "[depsipeptide (FR901228), Depsipeptide (FR901228)]", "values": [{"measurement": "GFP protein expression", "setting": "[1]; CTR", "value": "No GFP protein expression was detected"}, {"measurement": "fold GFP expression", "setting": "[1]; RD4a", "value": 2.7, "unit": "X"}, {"measurement": "fold GFP expression (adenoviral uptake)", "setting": "[1]; RH5, Fig. 2b and text", "value": "2.6 X and 2.8 X"}, {"measurement": "fold GFP expression", "setting": "[1]; RH13", "value": 2.8, "unit": "X"}, {"measurement": "fold GFP expression", "setting": "[1]; RH18", "value": 7.8, "unit": "X"}, {"measurement": "fold GFP expression", "setting": "[1]; RH30", "value": 8.6, "unit": "X"}, {"measurement": "acetylated histone H3", "setting": "[2]", "value": "increase in acetylated histone H3"}, {"measurement": "fold av integrin expression", "setting": "av integrin; CTR", "value": "2.2 X and 2 X"}, {"measurement": "fold av integrin expression", "setting": "av integrin; RD4a", "value": 1.3, "unit": "X"}, {"measurement": "fold av integrin expression", "setting": "av integrin; RH5", "value": 6.6, "unit": "X"}, {"measurement": "fold av integrin expression", "setting": "av integrin; RH13", "value": 6.9, "unit": "X"}, {"measurement": "fold av integrin expression", "setting": "av integrin; RH18", "value": 1.5, "unit": "X"}, {"measurement": "fold av integrin expression", "setting": "av integrin; RH30", "value": 1.1, "unit": "X"}, {"measurement": "fold modulation of av integrin expression", "setting": "av integrin; [5]", "value": "1.5-6.9 fold"}, {"measurement": "growth inhibition of RMS cells compared to controls", "setting": "[3]", "value": "less than 20%"}, {"measurement": "CAR expression", "setting": "[4]; CTR", "value": "lack of CAR expression"}, {"measurement": "fold CAR expression", "setting": "[4]; RD4a", "value": 4.8, "unit": "X"}, {"measurement": "fold CAR expression", "setting": "[4]; RH5", "value": 1.2, "unit": "X"}, {"measurement": "fold CAR expression", "setting": "[4]; RH13", "value": 3.3, "unit": "X"}, {"measurement": "fold CAR expression", "setting": "[4]; RH18", "value": 2.8, "unit": "X"}, {"measurement": "fold CAR expression", "setting": "[4]; RH30", "value": 8.1, "unit": "X"}, {"measurement": "fold increase in CAR expression compared to untreated cells", "setting": "[4]; [5]", "value": "2.8-8.1 fold"}]}
